Results on 4 molecules are retold here after US12058986B2, “Method for generating a genetically modified pig with inactivated porcine endogenous retrovirus (PERV) elements” (eGenesis, Inc., priority 2017, dated 2024).

The test system of one data set is PERV pol gene. Put plainly: PERV pol targeting (editing) efficiency in FFF3 cells, deep sequencing of PERV pol loci. The class given is cell-based, porcine. Conditions: for average targeting efficiency (PERV editing efficiency) of FFF3 populations: applied during genetic modification with CRISPR-Cas9. The method, then:
Similar to the procedure previously described by Yang et al, 2015, Science, 80:350, a DNA fragment encoding U6-gRNA1-U6-gRNA2 (Genewiz) was synthesized and incorporated into a previously constructed PiggyBac-cas9 plasmid. To establish the FFF3 cell lines with PiggyBac-Cas9/2gRNAs integration, 5×10^5 FFF3 cells were transfected with 16 μg PiggyBac-Cas9/2gRNAs plasmid and 4 μg Super PiggyBac Transposase plasmid (System Biosciences) using the Neon transfection system according to the instructions in the commercial kits (Thermo Fisher Scientific). To select the cells carrying the integrated construct, 2 μg/mL puromycin was applied to the transfected cells. Based on the negative control, in which puromycin was applied to wild type FFF3 cells, it was determined that the puromycin selection was completed in 4 days. The FFF3-PiggyBac cell line was maintained with 2 μg/mL puromycin hereafter and a 2 μg/ml doxycycline was applied to induce Cas9 expression of the doxycycline-inducible FFF3-PiggyBac cell line.
To avoid the Cas9-consistent expression in the FFF3 cell line, PiggyBac-Cas9/2gRNAs excision from the FFF3 genome was conducted by transfecting 5×10^5 cells with 3 μg PiggyBac Excision-Only Transposase vector using Lipofectamine 2000 reagent. The PiggyBac-Cas9/2gRNAs-excised FFF3 cells were then single-cell sorted into 96-well plates for clone growth and genotyping.
First, puromycin selection followed by PiggyBac excision was conducted on the FFF3, PiggyBac-Cas9/2gRNA cell line. Then the cells were single-cell sorted into both 96-well PCR plates for direct genotyping and 96-well cell culture plates for colony growth.
To genotype single FF cells without clonal expansion, the PERV loci from sorted single cells were directly amplified according to a previously reported single-cell genotyping protocol. Briefly, the single cells were sorted into 96-well PCR plates with each well carrying a 5 μl lysis mixture, which contained 0.51 μl 10×KAPA express extract buffer (KAPA Biosystems), 0.1 μl of 1 U/μl KAPA Express Extract Enzyme and 4.6 μl water. The lysis reaction was incubated at 75° C. for 15 min and the reaction was subsequently inactivated at 95° C. for 5 min. All reactions were then added to 20 μl PCR reactions containing 1×KAPA 2G fast (KAPA Biosystems), 0.2 μM PERV Illumina primers (Methods Table 2). Reactions were incubated at 95° C. for 3 min followed by 25 cycles of 95° C., 20 s; 59° C., 20 s and 72° C., 10 s. To add the Illumina sequence adaptors, 3 μl of reaction products were then added to 20 μl of PCR mix containing 1×KAPA 2G fast(KAPA Biosystems) and 0.3 μM primers carrying Illumina sequence adaptors. Reactions were incubated at 95° C. for 3 min followed by 10 cycles of 95° C., 20 s; 59° C., 20 s and 72° C., 10 s. PCR products were checked on EX 2% gels (Invitrogen), followed by the recovery of 300-400 bp products from the gel. These products were then mixed at roughly the same amount, purified (QIAquick Gel Extraction Kit), and sequenced with MiSeq Personal Sequencer (Illumina). Deep sequencing data was analyzed, and the PERV editing efficiency using CRISPR-GA was determined (Denner et al., 2016, Viruses, 8:215).
As previously described in Yang et al. (6), a custom pipeline was built to estimate the efficiency of PERV inactivation. Briefly, the pol gene was amplified and sequenced via Illumina Next Generation Sequencing using PE250 or PE300. First, the two overlapping reads using PEAR (15) were combined and mapped to the reference region using BLAT. After mapping, the reads were grouped into sets containing specific combinations of haplotypes, and indel types. Read sets with representation lower than 0.5% of the total number of mapped reads were discarded. Finally, the mapping output was parsed to call the different insertions and deletions, as described in Güell et al (16).

Setting [1] is: clones grown from sorted single cells.

`Cc1ccc(C(=O)Cn2c3c(sc2=N)CCCC3)cc1` [PFTα, pifithrin alpha, reference compound]: the “average targeting efficiency (PERV editing efficiency) of FFF3 populations” value (“average targeting efficiency” below) in the data set with PERV pol gene is recorded as “did not increased”.
Take basic fibroblast growth factor [bFGF]: the “average targeting efficiency” value in the data set with PERV pol gene is recorded as “did not increased”.
In the case of “Bcl-2: an apoptosis inhibitor, over-expressed”, the “PERV targeting efficiency among treatments with different dosages” value with PERV pol gene (FFF3 cells, seven days of treatment) was “No significant difference”. Further, in the data set with PERV pol gene, the “average targeting efficiency” value is on record as “did not increase”. Moreover, in the data set on FFF3 cells, the cytotoxicity result is given as “Dose-dependent cytotoxicity”.

B1: SV40 large T antigen: transiently over-expressed inhibitor of both p53 and Rb pathways (protein, UniProt P03070 1-708, looked up)
Large T antigen: MDKVLNREESLQLMDLLGLERSAWGNIPLMRKAYLKKCKEFHPDKGGDEEKMKKMNTLYKKMEDGVKYAHQPDFGGFWDATEIPTYGTDEWEQWWNAFNEENLFCSEEMPSSDDEATADSQHSTPPKKKRKVEDPKDFPSELLSFLSHAVFSNRTLACFAIYTTKEKAALLYKKIMEKYSVTFISRHNSYNHNILFFLTPHRHRVSAINNYAQKLCTFSFLICKGVNKEYLMYSALTRDPFSVIEESLPGGLKEHDFNPEEAEETKQVSWKLVTEYAMETKCDDVLLLLGMYLEFQYSFEMCLKCIKKEQPSHYKYHEKHYANAAIFADSKNQKTICQQAVDTVLAKKRVDSLQLTREQMLTNRFNDLLDRMDIMFGSTGSADIEEWMAGVAWLHCLLPKMDSVVYDFLKCMVYNIPKKRYWLFKGPIDSGKTTLAAALLELCGGKALNVNLPLDRLNFELGVAIDQFLVVFEDVKGTGGESRDLPSGQGINNLDNLRDYLDGSVKVNLEKKHLNKRTQIFPPGIVTMNEYSVPKTLQARFVKQIDFRPKDYLKHCLERSEFLLEKRIIQSGIALLLMLIWYRPVAEFAQSIQSRIVEWKERLDKEFSLSVYQKMKFNVAMGIGVLDWLRNSDDDDEDSQENADKNEDGGEKNMEDSGHETGIDSQSQGSFQAPQSSQSVHDHNQPYHICRGFTCFKKPPTPPPEPET
On to B1, for which the “average targeting efficiency” value with PERV pol gene is “increased”. Further, in the data set with PERV pol gene (setting [1]), the “increase of the ratio of >80% PERV-ko clones compared with the untreated group” value worked out at 3.75 folds and the “increase of the ratio of >90% PERV-ko clones compared with the untreated group” value was 5.06 folds.
